Laboratory results from patent publication US20210261857A1, “PARTICLE COMPRISING AT LEAST ONE FERRIMAGNETIC OR FERROMAGNETIC IRON OXIDE NANOPARTICLE ASSOCIATED WITH AT LEAST ONE COMPOUND FOR MEDICAL OR COSMETIC USE” (NANOBACTERIE, priority 2015, published 2021).

Columns and labels:
Assay type in all cases: physicochemical
[1] = Luminescence of heated DiI and BNF-DiI suspensions and supernate; details: excited at 530 nm
Description: A suspension of DiI of concentration 5.4 μM and pH 7 is heated at various temperatures lying between 20 and 90° C. for 30 minutes using a dry heating bath. […] When a suspension containing BNF-DiI mixed in water at a concentration of 80 μg/mL in iron oxide is heated at temperatures lying between 20 and 90° C. using a dry heating bath, the behavior is different from that observed with DiI alone.
In order to determine if the luminescence variation of the BNF-DiI is due to the dissociation of DiI from the BNF, the maximum intensity of luminescence of the supernate of BNF-DiI and DiI alone, excited at 530 nm, were measured for suspensions containing BNF-DiI or DiI alone heated at different temperatures between 20 and 90° C. for a period of 0 to 30 minutes.

[2] = Luminescence after irradiation with a faxitron irradiator (irradiation probe); details: 0 to 1350 Gy, 125 μM rhodamine B, pH 7, 25° C., excited at 550 nm, measured at 578 nm
Description: Three suspensions are maintained at pH 7 and at a temperature of 25° C., containing either 400 μg/mL in iron oxide of MCR400, 125 μM of rhodamine B, or 400 μg/mL in iron oxide of MC mixed with 125 μM of rhodamine B. These suspensions are irradiated with a faxitron irradiator dosimeter (160 kV, 6.3 mA without filter, 67.5 Gy/min). The irradiation doses are between 0 and 1350 Gy. […] In contrast, when the MCR400 suspension is irradiated, the luminescence of the supernate of this suspension, excited at 550 nm and measured at 576 nm, increases sharply from 250 a.u. in the absence of irradiation to 600-950 a.u. in the presence of an irradiation larger than 250 Gy.

[3] = Fluorescence lifetime by the frequency method; details: excitation 445 nm, MCR400 5 mg/mL in iron oxide, rhodamine B 5 μM
Description: Life time experiments were carried out using the frequency method. The set-up uses a modulated laser diode as excitation source, a confocal fluorescence spectroscope, a control unit for intensifying images and a camera, frequency generators and a spectrograph controller. The modulation frequency has been varied between 30 and 180 MHz. The excitation wavelength is 445 nm. The laser light is modulated by a radio frequency signal. An interference filter suppresses parasitic fluorescence from the laser diode and a high pass filter is placed in the detection path to decrease scattering. A volume of 1 mL of a suspension of MCR400 at 5 mg/mL in iron oxide and rhodamine B at a concentration of 5 μM was placed in a dry heating bath for 5 minutes to heat the suspensions at 25° C. and at 45° C. 10 μl of a suspension of MCR400 at 5 mg/ml in iron oxide and rhodamine B at a concentration of 5 μM were deposited on a slide and then placed in front of an objective ×40 to measure the fluorescence lifetime of each suspension.

[4] = Luminescence as a function of pH (pH 2 to 12), suspension, supernate and rhodamine B alone; details: 125 μM, excited at 550 nm
Description: A suspension of MCR400 at 400 μg/mL in iron oxide and a 125 μM solution of rhodamine B were mixed with solutions of hydrochloric acid or with solutions of sodium hydroxide at concentrations ranging from 0.1 to 12 M to adjust the pH to values between 2 and 12. The samples containing the MCR400 suspensions thus treated are then placed against a magnet of 0.6 T for 12 hours at 4° C. and the supernate of the treated MCR400 suspensions is removed. The maximum luminescence intensity of the supernate of the MCR400 suspension, excited at 550 nm, decreases from 140 a.u. at pH 2 down to 20 a.u. at pH 12. On the other hand, the maximum luminescence intensity of rhodamine B alone, excited at 550 nm, increases from 440 a.u. up to 580 a.u. […] In contrast, for 2<pH<4, the emission wavelengths of rhodamine B alone, MCR400 and the supernate of MCR400, are similar, lying between 580 nm and 584 nm. These behaviors could be explained by the association of rhodamine B with magnetosomes for pH>4 and the dissociation of rhodamine B from magnetosomes for pH<4.

[5] = Luminescence of heated rhodamine B solution and MCR400 suspension (temperature probe); details: temperature increased from 20° C. to 80° C., 5 μM, pH 7, heated 30 minutes, excited at 405 nm
Description: A solution of rhodamine B of concentration 5 μM and pH 7 contained in a volume of 800 μL is excited at 405 nm and heated at different temperatures for 30 minutes using a dry heating bath. When the temperature of this solution increases from 20° C. to 80° C., the wavelength corresponding to the maximum luminescence of rhodamine B remains relatively unchanged while the maximum luminescence intensity of rhodamine B decreases strongly by 73% in agreement with previously published results (Journal of Luminescence, Vol. 27, p. 455 (1982)). A suspension of MCR400 at a concentration of 250 μg/mL in iron oxide and pH 7 contained in a volume of 800 μl is excited at 405 nm and heated at different temperatures for 30 minutes using a dry hot-water heating bath. MCR400 excited at 405 nm produce maximum luminescence intensity at 569 nm. The behavior of the MCR400 is different from that of rhodamine B. Indeed, between 20° C. and 80° C., the maximum of the luminescence peak is observed at 569 nm and the luminescence intensity of the MCR400 increases sharply by 66%. The luminescence intensity of rhodamine B would initially be quenched when rhodamine B is associated with magnetosomes and would increase with the dissociation of rhodamine B from magnetosomes under the effect of a temperature increase.

luminescence on irradiation (solution, or supernate of the mixture) [2]	fluorescence lifetime ([3]; 25° C.) [ns]	fluorescence lifetime ([3]; 45° C.) [ns]	maximum luminescence intensity of the solution ([4]; end of the pH increase (pH range 2 to 12)) [a.u.]	maximum luminescence intensity of the solution ([4]; start of the pH increase (pH range 2 to 12)) [a.u.]	decrease of maximum luminescence intensity [5] [%]	SMILES	maximum luminescence intensity as a function of heating temperature ([1]; heated 30 minutes, DiI 5.4 μM pH 7, BNF-DiI 80 μg/mL in iron oxide)	luminescence intensity of the substance alone on heating ([1]; heated between 20 and 90° C. for 0 to 30 minutes)
–	–	–	–	–	–	CCCCCCCCCCCCCCCCCCN1C(=CC=CC2=[N+](CCCCCCCCCCCCCCCCCC)c3ccccc3C2(C)C)C(C)(C)c2ccccc21.[O-][Cl+3]([O-])([O-])[O-] [DiI, 1,1′-Dioctadecyl-3,3,3′,3′-tetramethyl-indocarbocyanine perchlorate]	increases between 20 and 60 °C and then decreases between 60 and 100 °C	does not significantly decrease
do not vary or decrease	1.6	1.3	580	440	73	CCN(CC)c1ccc2c(-c3ccccc3C(=O)O)c3ccc(=[N+](CC)CC)cc-3oc2c1.[Cl-] [rhodamine B]	–	–
